This experiment concerns the target T1, Prostaglandin G/H synthase 1 (Ovis aries, UniProt P05979).
T1 sequence (P05979 whole entry): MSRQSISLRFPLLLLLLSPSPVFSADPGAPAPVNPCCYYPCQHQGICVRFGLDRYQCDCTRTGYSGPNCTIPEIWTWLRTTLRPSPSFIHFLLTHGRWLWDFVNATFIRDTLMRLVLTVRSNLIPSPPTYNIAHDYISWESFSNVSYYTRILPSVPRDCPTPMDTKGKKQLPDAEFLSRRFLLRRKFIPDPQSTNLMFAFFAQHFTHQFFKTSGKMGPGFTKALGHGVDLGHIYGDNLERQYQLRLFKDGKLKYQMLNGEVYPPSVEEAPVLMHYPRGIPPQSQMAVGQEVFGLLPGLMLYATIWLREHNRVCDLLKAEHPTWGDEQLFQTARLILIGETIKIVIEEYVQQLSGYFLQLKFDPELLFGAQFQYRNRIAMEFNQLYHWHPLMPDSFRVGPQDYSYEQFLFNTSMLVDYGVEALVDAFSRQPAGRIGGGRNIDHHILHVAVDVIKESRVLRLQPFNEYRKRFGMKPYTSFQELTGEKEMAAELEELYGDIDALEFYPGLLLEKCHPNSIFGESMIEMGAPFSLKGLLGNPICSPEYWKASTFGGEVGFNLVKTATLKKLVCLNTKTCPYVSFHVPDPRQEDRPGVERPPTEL
In words: In vitro COX Inhibition Assay. How it is done:
The peroxidase activity is assayed colorimetrically by monitoring the appearance of oxidised N,N,N',N'-tetramethyl-p-phenylenediamine (TMPD) at 590 nm.
What is called IC50 is the concentration needed to halve the response being measured. Take `O=c1nc(-c2ccccc2)c(-c2ccccc2)nn1Cc1nnc(Nc2ccc(Cl)cc2)o1` [2-((5-(4-Chlorophenylamino)-1,3,4-oxadiazol-2-yl)methyl)-5,6-diphenyl-1,2,4-triazin-3(2H)-one (3d)]: the IC50 is 64.5 µM.

Consider `O=c1nc(-c2ccccc2)c(-c2ccccc2)nn1Cc1nnc(Nc2ccc(Cl)cc2)s1` [2-((5-(4-Chlorophenylamino)-1,3,4-thiadiazol-2-yl)methyl)-5,6-diphenyl-1,2,4-triazin-3(2H)-one (4d)], for which the IC50 was 62.2 µM.

`O=c1nc(-c2ccccc2)c(-c2ccccc2)nn1Cc1nnc(Nc2ccc([N+](=O)[O-])cc2)o1` [2-((5-(4-Nitrophenylamino)-1,3,4-oxadiazol-2-yl)methyl)-5,6-diphenyl-1,2,4-triazin-3(2H)-one (3e)] yielded an IC50 of 62.4 µM.

`COc1ccc(Nc2nnc(Cn3nc(-c4ccccc4)c(-c4ccccc4)nc3=O)o2)cc1` [2-((5-(4-Methoxyphenylamino)-1,3,4-oxadiazol-2-yl)methyl)-5,6-diphenyl-1,2,4-triazin-3(2H)-one (3c)] returned an IC50 of 60.5 µM.

Regarding `O=c1nc(-c2ccccc2)c(-c2ccccc2)nn1Cc1nnc(Nc2ccc([N+](=O)[O-])cc2)s1` [2-((5-(4-Nitrophenylamino)-1,3,4-thiadiazol-2-yl)methyl)-5,6-diphenyl-1,2,4-triazin-3(2H)-one (4e)], half-maximal inhibition (IC50) was put at 63.2 µM.

In turn, `COc1ccc(Nc2nnc(Cn3nc(-c4ccccc4)c(-c4ccccc4)nc3=O)s2)cc1` [2-((5-(4-Methoxyphenylamino)-1,3,4-thiadiazol-2-yl)methyl)-5,6-diphenyl-1,2,4-triazin-3(2H)-one (4c)] displayed an IC50 of 60.1 µM.
